Laboratory results reported in ChEMBL document CHEMBL1208694, “Aryl sulfonamides containing tetralin allylic amines as potent and selective bradykinin B1 receptor antagonists” (Bioorg Med Chem Lett, 2010).

What was measured:
[1] = target: T1, B1 bradykinin receptor (Homo sapiens, UniProt P46663); assay: Antagonist activity at human bradykinin B1 receptor assessed as inhibition of Lys-desArg9-BK-induced calcium flux; assay type: functional
T1 sequence (P46663 whole entry): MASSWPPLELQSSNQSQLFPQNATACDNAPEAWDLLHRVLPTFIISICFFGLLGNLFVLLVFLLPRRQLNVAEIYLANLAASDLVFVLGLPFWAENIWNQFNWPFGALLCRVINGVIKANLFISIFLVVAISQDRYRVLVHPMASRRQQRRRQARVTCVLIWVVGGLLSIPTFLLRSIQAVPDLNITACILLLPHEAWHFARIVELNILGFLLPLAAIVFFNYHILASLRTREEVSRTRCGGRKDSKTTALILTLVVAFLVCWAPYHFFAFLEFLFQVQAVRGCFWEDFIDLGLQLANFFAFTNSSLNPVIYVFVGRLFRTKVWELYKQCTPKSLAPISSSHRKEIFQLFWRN

[2] = target: T1, B1 bradykinin receptor; assay: Displacement of [3H]Lys-desArg9-BK from human bradykinin B1 receptor
[3] = Half life in rat at 1 mg/kg, iv; assay type: ADME, organism-based; set-up: dose 1 mg/kg, route intravenous; settings: in vivo
[4] = Clearance in rat at 1 mg/kg, iv; assay type: ADME, organism-based; set-up: dose 1 mg/kg, route intravenous; settings: in vivo
[5] = Volume of distribution at steady state in rat at 1 mg/kg, iv; assay type: ADME, organism-based; set-up: dose 1 mg/kg, route intravenous; settings: in vivo, read-out: Vdss
[6] = Metabolic stability in rat liver microsomes; assay type: ADME, Microsome; settings: read-out: Stability
[7] = Oral bioavailability in rat at 10 mg/kg; settings: in vivo

| SMILES | IC50 [1] [nM] | Ki [2] [nM] | half-life [3] [h] | clearance [4] [mL/min/kg] | Vd [5] [L/kg] | microsomal CLint [6] [µL/min/mg] | bioavailability [7] [%] |
| --- | --- | --- | --- | --- | --- | --- | --- |
| C=C(CN1CCCCC1)c1ccc2c(c1)CCC[C@H]2NC(=O)C[C@@H](NS(=O)(=O)c1cccc(C(F)(F)F)c1)c1ccccc1 | 41 | 3.3 | – | – | – | – | – |
| C=C(CN1CC[C@H](O)C1)c1ccc2c(c1)CCC[C@H]2NC(=O)C[C@@H](NS(=O)(=O)c1cccc(C(F)(F)F)c1)c1ccccc1 | 3.9 | 3.5 | – | – | – | – | – |
| C=C(CN1CCCC1)c1ccc2c(c1)CCC[C@H]2NC(=O)C[C@@H](NS(=O)(=O)c1cccc(C(F)(F)F)c1)c1ccc(F)cc1 | 1.3 | – | – | – | – | – | – |
| C=C(CNC1CCCC1)c1ccc2c(c1)CCC[C@H]2NC(=O)C[C@@H](NS(=O)(=O)c1cccc(C(F)(F)F)c1)c1ccccc1 | 47 | 30 | – | – | – | – | – |
| C=C(CNC1CCC1)c1ccc2c(c1)CCC[C@H]2NC(=O)C[C@@H](NS(=O)(=O)c1cccc(C(F)(F)F)c1)c1ccccc1 | 44 | 3.4 | – | – | – | – | – |
| C=C(CNC(C)(C)C)c1ccc2c(c1)CCC[C@H]2NC(=O)C[C@@H](NS(=O)(=O)c1cccc(C(F)(F)F)c1)c1ccccc1 | 78 | 11 | – | – | – | – | – |
| C=C(CN1CCCC1)c1ccc2c(c1)CCC[C@H]2NC(=O)C[C@@H](NS(=O)(=O)c1cccc(C(F)(F)F)c1)c1ccccc1 | 9.7 | 0.7 | 1.5 | 30.6 | 3.62 | 282 | 10 |
| O=C(C[C@@H](NS(=O)(=O)c1cccc(C(F)(F)F)c1)c1ccccc1)N[C@@H]1CCCc2cc(C3(CN4CCCCC4)CC3)ccc21 | 88 | 14 | – | – | – | – | – |
| C=C(CN1CC[C@@H](O)C1)c1ccc2c(c1)CCC[C@H]2NC(=O)C[C@@H](NS(=O)(=O)c1cccc(C(F)(F)F)c1)c1ccccc1 | 15 | 12 | – | – | – | – | – |
| C=C(CNCCOC)c1ccc2c(c1)CCC[C@H]2NC(=O)C[C@@H](NS(=O)(=O)c1cccc(C(F)(F)F)c1)c1ccccc1 | 23 | 42 | – | – | – | – | – |
| C=C(CNC(C)C)c1ccc2c(c1)CCC[C@H]2NC(=O)C[C@@H](NS(=O)(=O)c1cccc(C(F)(F)F)c1)c1ccccc1 | 42 | 4.6 | 2.4 | 33.2 | 5.86 | 240 | 15 |
| C=C(CNCCO)c1ccc2c(c1)CCC[C@H]2NC(=O)C[C@@H](NS(=O)(=O)c1cccc(C(F)(F)F)c1)c1ccccc1 | 32 | 21 | – | – | – | – | – |
| C=C(CN(C)C)c1ccc2c(c1)CCC[C@H]2NC(=O)C[C@@H](NS(=O)(=O)c1cccc(C(F)(F)F)c1)c1ccccc1 | 154 | 78 | – | – | – | – | – |
| C=C(CNCC1CC1)c1ccc2c(c1)CCC[C@H]2NC(=O)C[C@@H](NS(=O)(=O)c1cccc(C(F)(F)F)c1)c1ccccc1 | 105 | 16 | – | – | – | – | – |
| CC(CN1CCCCC1)c1ccc2c(c1)CCC[C@H]2NC(=O)C[C@@H](NS(=O)(=O)c1cccc(C(F)(F)F)c1)c1ccccc1 (stereo partly specified) | 316 | 34 | – | – | – | – | – |
| C=C(CN1CCC1)c1ccc2c(c1)CCC[C@H]2NC(=O)C[C@@H](NS(=O)(=O)c1cccc(C(F)(F)F)c1)c1ccccc1 | 206 | 12 | – | – | – | – | – |
